Results taken from patent publication US7910141B2, “Antiallergic composition” (Sapporo Breweries Limited, priority 2005, dated 2011).
Structures can show the parent of a compound that is named as a salt.

Tested on: ICR mice
Experiment: DNP-HSA-induced auricular edema in mice (passive cutaneous anaphylaxis)
Type: in vivo, mouse
Details: FIG. 8 experiment
Description: Inhibiting Action of Hop Water Extract on DNP-HSA-Induced Auricular Edema in Mice: • Six-week-old ICR mice (male or female; Charles River Laboratories, Japan Inc.) were separated into 4-5 per cage and raised at room temperature (24±2° C.) and 55±15% humidity, with a 12 hour light/dark cycle (light: 8:00-20:00). After preparatory rearing for at least one week, they were provided for the test. A hop pellet water extract, hop leaf water extract or ketotifen fumarate aqueous solution (10 mL/kg) was forcedly administered orally to each test group, while 10 mL/kg of distilled water was forcedly administered orally to the control group. The hop pellet water extract was prepared by adding hop pellets (Czech Saaz) to distilled water to 10% (w/w) and extracting overnight at 4° C., and then centrifuging at 3000 rpm for 10 minutes and filtering. The hop leaf water extract was prepared by adding dry hop leaves (Kokusan hop young leaves) to distilled water to 10% (w/w) and extracting overnight at 4° C., and then centrifuging at 3000 rpm for 10 minutes and filtering. The ketotifen fumarate aqueous solution was prepared by dissolving in distilled water to a concentration of 0.5 mg/mL.
At 1 hour after oral administration, 20 μL of 10 μg/mL mouse anti-DNP-IgE antibody (Sigma) was intradermally injected into one auricle of each mouse, while 20 μL of physiological saline (PS) was intradermally injected into the other auricle. […] The auricular thickness before antigen administration and 30 minutes after antigen administration was measured three times each using a thickness gauge, and the auricular edema ratio and auricular thickness increase were determined. […] The auricular edema ratio (%) was calculated by the formula: (Mean auricular thickness 30 minutes after antigen administration−mean auricular thickness before antigen administration)×100/mean auricular thickness […], and the auricular thickness increase (mm) was calculated by the formula: Mean auricular thickness 30 minutes after antigen administration−mean auricular thickness before antigen administration.

[1] = oral 10 mL/kg, intradermal injection of IgE antibody, 30 minutes after antigen

Q: What does the source list for `CN1CCC(=C2c3ccccc3CC(=O)c3sccc32)CC1` [ketotifen fumarate]?
A: auricular edema ratio compared to the distilled water-administered group (t-test) (ketotifen p<0.05, hop extracts p value of 0.08, critical region 5%): significantly inhibited; auricular edema ratio [1]: 12.7±5.4%; auricular thickness increase [1]: 0.045±0.020 mm
